Results taken from paper PMC6687188, “Novel lactate dehydrogenase inhibitors with in vivo efficacy against Cryptosporidium parvum” (PLoS Pathogens, 2019).
Like-named read-outs stand apart in the source and are kept apart here.

Legend:
[1] = biological target: T1, recombinant CpLDH protein (Cryptosporidium parvum, UniProt Q9GT92, F198L/K295E/R251K); settings: for Km: pyruvate/NADH: reduction reaction pH 7.5, lactate/NAD+: oxidation reaction pH 9.2, 25°C; for Kcat / Vmax: pyruvate/NADH: reduction reaction, lactate/NAD+: oxidation reaction
Description: The coding sequence of CpLDH was cloned from cDNA prepared from the AUCP-1 isolate of C. parvum, and the His-tagged CpLDH recombinant protein expressed in Escherichia coli, and purified in native form essentially as previously described. Briefly, cDNA was prepared from total RNA extracted from the AUCP-1 isolate of C. parvum, and the coding sequence of CpLDH (Genebank accession number AF274310.1) was PCR-amplified from the cDNA using the primer pair 5’-[…]-3’ (Forward, with the XhoI restriction site italicized and start codon in bold) and 5’-[…]-3’ (Reverse, with the BamHI site italicized and stop codon in bold). The PCR amplicon was cloned at the XhoI/BamHI site of the pET15b expression vector in-frame with the hexahistidine (His-tag) at the N-terminal and sequenced to confirm identity. The recombinant expression vector was transformed into protein expression E. coli BL21-CodonPlus-DE3-RIL (Stratagene). Transformed E. coli was cultured at 37°C in Luria broth medium (supplemented with 100 μg/ml ampicillin and 34 μg/ml chloramphenicol) to an A600 of 0.8 followed by addition of 1 mM isopropyl-β-D-thiogalactopyranoside to induce protein expression. The expression E. coli was harvested and lysed under native conditions by sonicating in lysis buffer (50 mM NaH2PO4, 300 mM NaCl, 10 mM Imidazole, pH 8.0) containing a 1x EDTA-free protease inhibitor cocktail, 600 units benzonase and 30 kU lysozyme (EMD Millipore). The lysate was clarified by centrifugation and the His-tagged recombinant protein purified under native conditions by nickel-affinity chromatography according to the manufacturer's instructions (Novagen). The wash buffer used contained 50 mM NaH2PO4, 300 mM NaCl and 20 mM Imidazole, pH 8.0, while the elution buffer was composed of 50 mM NaH2PO4, 300 mM NaCl, 250 mM Imidazole, pH 8.0. The eluate was dialyzed using a buffer containing 5 mM Hepes–KOH (pH 7.8) and 0.5 mM DTT. The purity of the recombinant protein was determined by SDS/PAGE, and the concentration measured using a Qubit 3.0 fluorometer (Life technologies). […] On the other hand, the catalytic activity of CpLDH recombinant protein for the oxidation of lactate to pyruvate was determined by measuring the change in optical density of a 100 μl reaction mixture containing 100 mM lactate, 1 mM NAD^+, 100 mM Tris, pH 9.2, with varying concentrations of CpLDH recombinant protein at 25°C. […] In all assays, reaction mixtures without recombinant CpLDH protein were included as negative controls. All assays were performed in triplicate and repeated at least thrice. The change in optical density was measured every 15 seconds for a total of 2 minutes using a Spectra Max 384 Plus plate reader (Molecular Devices) at a wave length of 340 nm.

[2] = biological target: T1, recombinant CpLDH protein; settings: value in parentheses; ref Zhang et al., 2015 [11]; cited from earlier work
[3] = Compound cytotoxicity assay (WST-1 cell proliferation reagent); settings: human
Description: (§1) A colorimetric assay using the cell proliferation reagent WST-1 (Roche, USA) for the quantification of cell viability was performed. […] When the cells were confluent, the old medium was replaced with fresh medium with or without varying concentrations of chemical compound. After 24 h of culture, 10 μl of the cell proliferation reagent WST-1, (for quantification of cell viability) was added to each well, mixed and the plates incubated for 1 h at 37 C with 5% CO2 in the dark. […] Three independent assays were performed and the dose–response curves of the means of triplicate assays were generated using GraphPad PRISM software to derive the half maximal inhibitory concentration (IC50) of compounds in HCT-8 cells.

HCT-8 cells = assay: as above
Description: as §1

[4] = biological target: T1, recombinant CpLDH protein
[5] = biological target: T1, recombinant CpLDH protein; settings: cited from earlier work

Row | SMILES | IC50 (HCT-8 cells) | MEAN CpLDH INHIBITION (%) [4] | also measured
1 | NC(=O)c1ccc[n+]([C@@H]2O[C@H](COP(=O)([O-])OP(=O)(O)OC[C@H]3O[C@@H](n4cnc5c(N)ncnc54)[C@H](O)[C@@H]3O)[C@@H](O)[C@H]2O)c1 [NAD^+] | – | – | Km [1]: 56 µM; Kcat [1]: 0.11 s⁻¹; Vmax [1]: 0.07 nmol⁻¹ µg⁻¹ min⁻¹; Kcat [2]: 0.70 s⁻¹; Km [2]: 62 µM; Vmax [2]: 0.56 nmol⁻¹ µg⁻¹ min⁻¹
2 | CC(=O)C(=O)O [Pyruvate, pyruvate] | – | – | Km for pyruvate lower than that for lactate [1]: at least 54 fold; Vmax for pyruvate higher than that for lactate [1]: 123 fold; Km [1]: 731 µM; Kcat [1]: 8.42 s⁻¹; Vmax [1]: 5.04 nmol⁻¹ µg⁻¹ min⁻¹; Kcat [2]: 16.10 s⁻¹; Km [2]: 427 µM; Vmax [2]: 12.89 nmol⁻¹ µg⁻¹ min⁻¹
3 | Cc1cc2c(C(C)C)c(O)c(O)c(C=O)c2c(O)c1-c1c(C)cc2c(C(C)C)c(O)c(O)c(C=O)c2c1O [NSC56817] | – | – | IC50 at 24 h [3]: 64.2 µM
4 | NC(=O)C1=CN([C@@H]2O[C@H](COP(=O)(O)OP(=O)(O)OC[C@H]3O[C@@H](n4cnc5c(N)ncnc54)[C@H](O)[C@@H]3O)[C@@H](O)[C@H]2O)C=CC1 [NADH] | – | – | Km [1]: 734 µM; Vmax [1]: 6.29 nmol⁻¹ µg⁻¹ min⁻¹
5 | CC1=C(CCC(=O)O)c2cc3nc(cc4[nH]c(cc4C)cc4[nH]c(cc1n2)cc4C)C(C)=C3CCC(=O)O [NSC18298] | 81.9 µM | 53.86% | –
6 | O=C([CH-]C(=O)C(F)(F)F)c1ccccc1.O=C([CH-]C(=O)C(F)(F)F)c1ccccc1.O=C([CH-]C(=O)C(F)(F)F)c1ccccc1.O=C([CH-]C(=O)C(F)(F)F)c1ccccc1.[Eu+3].c1ccncc1 [NSC253995] | 83 µM | 25.71% | –
7 | O=S(=O)(O)c1cc(N=[N+]([O-])c2cc(S(=O)(=O)O)c3ccccc3c2)cc2ccccc12 [NSC37031] | 333 µM | – | effect on catalytic activity of recombinant CpLDH (in words) [4]: significantly (P < 0.05) inhibited
8 | O=S(=O)([O-])c1cc(N=Nc2cc(S(=O)(=O)[O-])c3ccccc3c2O)ccc1/C=C/c1ccc(N=Nc2cc(S(=O)(=O)[O-])c3ccccc3c2O)cc1S(=O)(=O)[O-].[Na+].[Na+].[Na+].[Na+] [NSC34931] | 71.1 µM | 43.74% | –
9 | Cc1cc2c(c3oc(C4(C)OC4C4OC4C)cc(=O)c13)C(=O)c1c(O)c(C3CC(C)(N(C)C)C(O)C(C)O3)cc(C3CC(N(C)C)C(O)C(C)O3)c1C2=O (stereo not shown) [NSC70929] | 181 µM | 13.50% | –
10 | CCOC(=O)Cc1c(C)c2cc(C(=O)c3ccccc3)c(O)cc2oc1=O [NSC115538] | 158 µM | 0.63% | –
11 | [Cl][Cd][Cl] [NSC51148] | 39.6 µM | 64.58% | –
12 | COc1ccc(/C=C/C(=O)Oc2cc(O)cc(O)c2)cc1 [NSC175296] | 156 µM | 0.00% | –
13 | CC(=O)Nc1ccc(-c2nc3ccccc3s2)cc1 [NSC33006] | 87.3 µM | 13.74% | –
14 | N#CCCN(CCC#N)Cc1cc(O)c(CN(CCC#N)CCC#N)cc1O [NSC70925] | 142 µM | 68.17% | –
15 | Cc1cc2c(C(C)C)c(O)c(O)c(C=O)c2c(O)c1-c1c(C)cc2c(C(C)C)c(O)c(O)c(C=O)c2c1O [gossypol] | – | – | enzymatic activity of CpLDH (in words) [5]: able to inhibit
16 | Cc1cc(N(CCCl)CCCl)ccc1/C=N/NC(=O)Cc1cc(=O)oc2cc(O)ccc12 [NSC79688] | – | 40.15% | IC50 (HCT-8 cells; read-out: CYTOTOXICITY IC50, HCT-8 cells, 24 h): 145 µM
17 | O=Cc1cc([N+](=O)[O-])no1 [NSC626433] | 265 µM | 48.62% | –
18 | CC(O)CCC(=O)c1ccoc1 (stereo not shown) [NSC349438] | 93.9 µM | 13.12% | –
19 | CCCc1c(O)c(O)c(C(=O)O)c2cc(Cc3ccccc3)c(C)cc12 [FX11] | – | – | enzymatic activity of CpLDH (in words) [5]: able to inhibit
20 | COC(=O)C1=C(C(=O)OC)SC2(S1)C(C(=O)OC)=C(C(=O)OC)Sc1c2ssc1=O [NSC686349] | 283 µM | 31.74% | –
21 | CC(O)C(=O)O (stereo not shown) [Lactate, lactate] | – | – | Km [1]: 39600 µM; Kcat [1]: 0.07 s⁻¹; Vmax [1]: 0.04 nmol⁻¹ µg⁻¹ min⁻¹; Kcat [2]: 0.66 s⁻¹; Km [2]: 10800 µM; Vmax [2]: 0.53 nmol⁻¹ µg⁻¹ min⁻¹
22 | CN(C)C(=S)SSC(=S)N(C)C [NSC1771] | – | – | IC50 at 24 h [3]: 110 µM
23 | O=S(=O)(O)c1cc(N=Nc2cc(S(=O)(=O)O)c3cccnc3c2O)ccc1/C=C/c1ccc(N=Nc2cc(S(=O)(=O)O)c3cccnc3c2O)cc1S(=O)(=O)O [NSC638352] | 116 µM | 43.74% | –
24 | O=[N+]([O-])c1cccc2c(N=Nc3ccc4ccccc4c3O)c(O)cc(S(=O)(=O)O)c12.[Na+] [NSC85561] | 103 µM | 73.45% | –
